Structures are written as SMILES.

This test concerns the target T1, Secreted chorismate mutase (Mycobacterium tuberculosis, UniProt P9WIB9).
T1 sequence (P9WIB9 whole entry): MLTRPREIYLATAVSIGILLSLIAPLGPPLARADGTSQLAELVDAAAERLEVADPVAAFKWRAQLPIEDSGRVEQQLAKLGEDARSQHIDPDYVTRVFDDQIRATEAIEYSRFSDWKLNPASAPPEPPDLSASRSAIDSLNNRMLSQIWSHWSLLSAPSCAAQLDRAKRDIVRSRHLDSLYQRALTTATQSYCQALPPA
The test is described as follows: Inhibition of chorismate mutase in Mycobacterium tuberculosis H37Rv strain.
Usually Ki stands for the equilibrium dissociation constant of an inhibitor or competing ligand from its target. A low value points to tighter binding. `COc1ccc(CCNc2c([N+](=O)[O-])cc(C(=O)O)cc2S(N)(=O)=O)cc1OC` had a Ki of 5.7 µM.

Molecule `CNc1ccc(C(=O)OC)cc1[N+](=O)[O-]` had a Ki of 28.8 µM.

Consider `COc1cc(/C=C(\C(=O)O)c2ccc(Cl)cc2)c([N+](=O)[O-])cc1OC`, for which the Ki is 17.7 µM. The result for `CC(C)CC(NC(=O)C1CSC(c2ccccc2)N1C(=O)OC(C)(C)C)C(=O)O` (centres undefined) reads 21.1 µM.
